Measurements from patent US4340539A, “Derivatives of 6-bromo penicillanic acid” (priority 1980, dated 1982).
Converted amounts (≈) assume the structure as drawn. Structures can show the parent of a compound that is named as a salt. Where two headings read alike, the source gives them in different places.

What was measured:
[1] = test system: β-lactamase producing strains of S. aureus; assay: Therapeutic efficacy of amoxicillin in combinations with BL-P2024 in infected mice (Table 7); assay type: in vivo; conditions: Staphylococcus aureus, po, read-out: PD50/Treatment
[2] = test system: β-lactamase producing strains of E. coli; assay: as above; assay type: in vivo; conditions: oral
B. fragilis = assay: Anti-Bacteroides activity (MIC, agar dilution), alone and in combination with BL-P2013; assay type: cell-based
S. aureus A-9606 = assay: Therapeutic efficacy in mice experimentally infected with a beta-lactamase strain of Staphylococcus aureus (Table 3); assay type: in vivo; conditions: for ED50: Staphylococcus aureus, A9606, challenge 5 × 10^8, read-out: PD50/Treatment
Description: Treatment schedule: Drugs administered 0 and 2 hours postinfection.

Bacteroides species = assay: Anti-Bacteroides activity (MIC, agar dilution), alone and in combination with BL-P2013; assay type: cell-based
B. thetaiotaomicron = assay: as above; assay type: cell-based
Description: *Minimum inhibitory concentration (MIC) determined by the agar dilution
method using 50X dilutions of 24 hour cultures as inocula dispensed by th
Steer's inoculator. Assay medium composed of Brucella Agar plus 5% laked
sheep blood and 10 mcg/ml vitamin K.

[3] = test system: β-lactamase producing strains of E. coli; assay: animal or person; assay type: in vivo, mice; conditions: Escherichia coli, in Mus musculus, po
Description: (§1) Drugs were administered orally at 0 and 2 hours postinfection.
(§2) Drugs were suspended in TCMC.

[4] = test system: β-lactamase producing strains of S. aureus; assay: animal or person; assay type: in vivo, mice; conditions: Staphylococcus aureus, in Mus musculus, po
Description: as §1, §2

S. pyogenes = assay: Antibacterial activity (MIC); assay type: cell-based; conditions: Streptococcus pyogenes; strain A-9604
S. marcescens = assay: Antibacterial activity (MIC); assay type: cell-based; conditions: Serratia marcescens; strain A20019
S. pneumoniae = assay: Antibacterial activity (MIC); assay type: cell-based; conditions: Streptococcus pneumoniae; strain A-9585
P. mirabilis = assay: Antibacterial activity (MIC); assay type: cell-based; conditions: Proteus mirabilis; strain A-9900
E. coli = assay: Antibacterial activity (MIC); assay type: cell-based; conditions: Escherichia coli, strain A15119
S. aureus = assay: Antibacterial activity (MIC); assay type: cell-based; conditions: Staphylococcus aureus
S. faecalis = assay: Antibacterial activity (MIC); assay type: cell-based; conditions: Enterococcus faecalis; strain A20688
E. cloacae = assay: Antibacterial activity (MIC); assay type: cell-based; conditions: Enterobacter cloacae, strain A-9659
P. rettgeri = assay: Antibacterial activity (MIC); assay type: cell-based; conditions: Providencia rettgeri; strain A21203
in vivo = assay: in vivo; parameters: species or system mice; conditions: mouse, blood, po, 100 mg/kg, Test 3, oral 100 mg/kg, 30 min; read-out: Blood level
Description: Compounds prepared in 5% Propylene Glycol & TweenCMC-H2 O.
Values in parentheses are 95% confidence limits.
Assay Organism: E. coli A9675 (pH = 6.6, 0.1% inoculum)

[5] = man, cited from earlier work
Hygroscopicity = assay type: physicochemical
[6] = strain A21875, β-lactamase +, read-out: MIC
[7] = strain A21916, β-lactamase +, read-out: MIC
[8] = strain A22021, β-lactamase +, read-out: MIC
[9] = strain A22053, β-lactamase +, read-out: MIC
[10] = strain A22697, β-lactamase +, read-out: MIC
[11] = strain A22793, β-lactamase +, read-out: MIC
[12] = strain A22794, β-lactamase +, read-out: MIC
[13] = strain A22798, β-lactamase +, read-out: MIC
[14] = Bacteroides, strain A20927-1, β-lactamase -, read-out: MIC
[15] = Bacteroides, strain A20933, β-lactamase +, read-out: MIC
[16] = Bacteroides, strain A20934, β-lactamase +, read-out: MIC
[17] = Bacteroides, strain A20935, β-lactamase -, read-out: MIC
[18] = Bacteroides thetaiotaomicron, strain A22277, β-lactamase +, read-out: MIC

CC1(C)S[C@@H]2[C@H](NC(=O)[C@H](N)c3ccc(O)cc3)C(=O)N2[C@H]1C(=O)O [Amoxicillin]
ED50 [1]: > 800 mg/kg
PD50/Treatment ([2]; E. coli A9675, challenge 6 × 10^5, vehicle TCMC): > 400 mg/kg
PD50/Treatment ([2]; E. coli A9675, challenge 7 × 10^5, vehicle 50% DMSO): > 100 mg/kg
PD50/Treatment ([2]; E. coli A9675, challenge 7 × 10^5, vehicle TCMC): > 100 mg/kg
PD50/Treatment ([2]; E. coli A9675, challenge 9 × 10^5, vehicle 50% DMSO): > 100 mg/kg
MIC (B. fragilis; [6]): 8 µg/mL
MIC (B. fragilis; [7]): 8 µg/mL
MIC (B. fragilis; [8]): 4 µg/mL
MIC (B. fragilis; [9]): 8 µg/mL
MIC (B. fragilis; strain A22533, β-lactamase +): > 125 µg/mL
MIC (B. fragilis; strain A22534, β-lactamase +): > 125 µg/mL
MIC (B. fragilis; strain A22535, β-lactamase +): > 125 µg/mL
MIC (B. fragilis; strain A22693, β-lactamase +): 16 µg/mL
MIC (B. fragilis; strain A22694, β-lactamase +): 16 µg/mL
MIC (B. fragilis; strain A22695, β-lactamase +): 125 µg/mL
MIC (B. fragilis; strain A22696, β-lactamase +): > 125 µg/mL
MIC (B. fragilis; [10]): 8 µg/mL
MIC (B. fragilis; strain A22792, β-lactamase +): 125 µg/mL
MIC (B. fragilis; [11]): 8 µg/mL
MIC (B. fragilis; [12]): 8 µg/mL
MIC (B. fragilis; strain A22795, β-lactamase +): 16 µg/mL
MIC (B. fragilis; strain A22797, β-lactamase +): 16 µg/mL
MIC (B. fragilis; [13]): 8 µg/mL
PD50/Treatment (S. aureus A-9606; IM, challenge 7 × 10^8): > 800 mg/kg
ED50 (S. aureus A-9606; IM): > 800 mg/kg
ED50 (S. aureus A-9606; PO): > 800 mg/kg
MIC (Bacteroides species; Bacteroides): 16 µg/mL
MIC (Bacteroides species; [14]): 0.13 µg/mL
MIC (Bacteroides species; Bacteroides, strain A20930, β-lactamase +, read-out: MIC): 32 µg/mL
MIC (Bacteroides species; [15]): 8 µg/mL
MIC (Bacteroides species; [16]): 8 µg/mL
MIC (Bacteroides species; [17]): 0.13 µg/mL
MIC (Bacteroides species; strain A20929, β-lactamase +): 16 µg/mL
MIC (Bacteroides species; strain A20931, β-lactamase +): 16 µg/mL
MIC (Bacteroides species; strain A21954, β-lactamase +): 16 µg/mL
MIC (B. thetaiotaomicron; [18]): 16 µg/mL
MIC (B. thetaiotaomicron; strain A22279, β-lactamase +): 16 µg/mL
ED50 ([3]; read-out: PD50/Treatment, oral, E. coli A9675, challenge 6 × 10^5): > 400 mg/kg
ED50 ([3]; read-out: PD50/Treatment, oral, E. coli A9675, challenge 7 × 10^5): > 100 mg/kg
ED50 ([3]; read-out: PD50/Treatment, oral, E. coli A9675, challenge 8 × 10^5): > 200 mg/kg
ED50 ([3]; read-out: PD50/Treatment, oral, E. coli A20649, challenge 5 × 10^5): > 200 mg/kg
ED50 ([3]; read-out: PD50/Treatment, oral, E. coli A20649, challenge 6 × 10^5): > 200 mg/kg
ED50 ([3]; read-out: PD50/Treatment, oral, E. coli A21223, challenge 6 × 10^5): > 200 mg/kg
ED50 ([3]; read-out: PD50/Treatment, oral, E. coli A21223, challenge 7 × 10^5 (first line)): > 200 mg/kg
ED50 ([3]; read-out: PD50/Treatment, oral, E. coli A21223, challenge 7 × 10^5 (third line)): > 200 mg/kg
ED50 ([4]; read-out: PD50/Treatment, oral, S. aureus A9606, challenge 2 × 10^9): > 800 mg/kg
ED50 ([4]; read-out: PD50/Treatment, oral, S. aureus A9606, challenge 7 × 10^8): > 200 mg/kg
ED50 ([4]; read-out: PD50/Treatment, oral, S. aureus A15091, challenge 4 × 10^8): > 200 mg/kg
ED50 ([4]; read-out: PD50/Treatment, oral, S. aureus A15091, challenge 5 × 10^8): > 800 mg/kg
ED50 ([4]; read-out: PD50/Treatment, oral, S. aureus A20379, challenge 5 × 10^8): > 200 mg/kg
ED50 ([4]; read-out: PD50/Treatment, oral, S. aureus A20379, challenge 6 × 10^8): > 200 mg/kg

CC1(C)S[C@@H]2[C@H](NC(=O)[C@H](N)c3ccccc3)C(=O)N2[C@H]1C(=O)O [Ampicillin, reference compound]
MIC (S. pyogenes): 0.004 µg/mL (≈ 0.0114 µM)
MIC (S. marcescens): 16 µg/mL (≈ 45.8 µM)
MIC (S. pneumoniae): 0.004 µg/mL (≈ 0.0114 µM)
MIC (P. mirabilis): 0.13 µg/mL (≈ 0.372 µM)
MIC (E. coli): 1 µg/mL (≈ 2.86 µM)
MIC (S. aureus; strain A-9537): 0.16 µg/mL (≈ 0.458 µM)
MIC (S. aureus; strain A-9537, + 50% serum): 0.06 µg/mL
MIC (S. faecalis): 0.13 µg/mL (≈ 0.372 µM)
MIC (E. cloacae): 63 µg/mL (≈ 180 µM)
MIC (P. rettgeri): 4 µg/mL (≈ 11.4 µM)

CC1(CCl)C(C(=O)OC2OC(=O)c3ccccc32)N2C(=O)CC2S1(=O)=O (centres unmarked) [BL-P2036]
concentration at 0.5 h (in vivo): 6700 ng/mL

NCc1ccccc1CC(=O)N[C@@H]1C(=O)N2C(C(=O)O)=C(CSc3nnnn3CC(=O)O)CS[C@H]12 [Ceforanide]
MIC (B. fragilis; [6]): 32 µg/mL
MIC (B. fragilis; [7]): 63 µg/mL
MIC (B. fragilis; [8]): 32 µg/mL
MIC (B. fragilis; [9]): 32 µg/mL
MIC (B. fragilis; strain A22533, β-lactamase +): > 125 µg/mL
MIC (B. fragilis; strain A22534, β-lactamase +): > 125 µg/mL
MIC (B. fragilis; strain A22535, β-lactamase +): > 125 µg/mL
MIC (B. fragilis; strain A22693, β-lactamase +, read-out: MIC): 63 µg/mL
MIC (B. fragilis; strain A22694, β-lactamase +): 125 µg/mL
MIC (B. fragilis; strain A22695, β-lactamase +): > 125 µg/mL
MIC (B. fragilis; strain A22696, β-lactamase +): > 125 µg/mL
MIC (B. fragilis; [10]): 63 µg/mL
MIC (B. fragilis; strain A22792, β-lactamase +): > 125 µg/mL
MIC (B. fragilis; [11]): 32 µg/mL
MIC (B. fragilis; [12]): 32 µg/mL
MIC (B. fragilis; strain A22795, β-lactamase +, read-out: MIC): 63 µg/mL
MIC (B. fragilis; strain A22797, β-lactamase +, read-out: MIC): 63 µg/mL
MIC (B. fragilis; [13]): 32 µg/mL
MIC (Bacteroides species; Bacteroides): 125 µg/mL
MIC (Bacteroides species; [14]): 0.5 µg/mL
MIC (Bacteroides species; Bacteroides, strain A20929, β-lactamase +, read-out: MIC): 63 µg/mL
MIC (Bacteroides species; Bacteroides, strain A20931, β-lactamase +, read-out: MIC): 63 µg/mL
MIC (Bacteroides species; [15]): 63 µg/mL
MIC (Bacteroides species; [16]): 32 µg/mL
MIC (Bacteroides species; [17]): 2 µg/mL
MIC (Bacteroides species; Bacteroides, strain A21954, β-lactamase +, read-out: MIC): 63 µg/mL
MIC (Bacteroides species; Bacteroides, strain A21959, β-lactamase +, read-out: MIC): 63 µg/mL
MIC (B. thetaiotaomicron; [18]): 125 µg/mL
MIC (B. thetaiotaomicron; strain A22279, β-lactamase +): 125 µg/mL

CC1(C)S[C@@H]2[C@H](NC(=O)[C@H](N)c3ccccc3)C(=O)N2[C@H]1C(=O)OCOC(=O)[C@@H]1N2C(=O)C[C@H]2S(=O)(=O)C1(C)C [Example 3]
absorption ([5]; gastro-intestinal tract): excellently absorbed
blood and tissue levels of antibiotic and β-lactamase inhibitor [5]: high blood and tissue levels
hydrolysis after absorption [5]: hydrolyzed with simultaneous liberation of the active components

CC1(CCl)C(C(=O)O)N2C(=O)CC2S1(=O)=O (centres unmarked) [Sodium Salt of BL-P2013]
hygroscopicity (Hygroscopicity): Non-hygroscopic
